Test results: US20240254129A1, “HETEROCYCLIC COMPOUNDS AND USES THEREOF” (Kumquat Biosciences Inc., priority 2021, published 2024)

Tests used:
[1] = biological target: GST-tagged K-Ras mutant / His-tagged hSOS1 (Homo sapiens, UniProt P01116); experiment: HTRF assay, K-Ras mutant / SOS1 interaction; assay type: binding; details: compound nos. 401-703; read-out: IC50 against mutant Kras
Procedure, shortened: (§1)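 GST-tagged K-Ras (mutant or wildtype) with anti-GST-Eu donor was mixed with His-hSOS1 and anti-6His-XL665 acceptor in HEPES pH 7.4 buffer with NaCl, DTT, BSA and Igepal. After ≥10 min, HTRF was read (ex 337 nm, em 620/665 nm); 665/620 ratios gave IC50 from duplicate dilution series.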

wildtype Kras / hSOS1 = biological target: T1, wildtype Kras / hSOS1 (Homo sapiens, UniProt P01116); experiment: HTRF assay, wildtype Kras / SOS1 interaction; assay type: binding; details: compound nos. 401-703; read-out: IC50 against wildtype Kras
T1 construct: made in house; host or cells: E. coli BL21 (DE3)
T1 sequence (P01116 1-188 isoform P01116-2): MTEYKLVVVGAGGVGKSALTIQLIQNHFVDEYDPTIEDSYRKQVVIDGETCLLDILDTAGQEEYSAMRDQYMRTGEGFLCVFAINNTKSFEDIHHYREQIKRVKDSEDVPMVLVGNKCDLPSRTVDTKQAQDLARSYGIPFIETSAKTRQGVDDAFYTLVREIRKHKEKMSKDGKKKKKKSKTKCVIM
Procedure, shortened: as §1

Sequence of GST-tagged K-Ras mutant / His-tagged hSOS1 (P01116 whole entry G12D, form open): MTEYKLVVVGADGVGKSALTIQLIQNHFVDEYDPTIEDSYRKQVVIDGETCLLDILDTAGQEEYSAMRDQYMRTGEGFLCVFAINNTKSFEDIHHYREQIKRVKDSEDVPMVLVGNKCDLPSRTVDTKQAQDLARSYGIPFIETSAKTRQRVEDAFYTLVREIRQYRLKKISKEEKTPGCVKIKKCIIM

Compound | IC50 [1] [nM] | IC50 (wildtype Kras / hSOS1) [nM]
Fc1c(-c2cccc3[nH]ncc23)ccc2c(N3CC4CCC(C3)N4)nc(OC[C@@]34CCCN3C[C@H](F)C4)nc12 [Compound 654, 4-(3,8-diazabicyclo[3.2.1]-octan-3-yl)-8-fluoro-2-(((2R,7aS)-2-fluorotetra-hydro-1H-pyrrolizin-7a(5H)-yl)methoxy)-7-(1H-indazol-4-yl)quinazoline] | > 500 | > 500
Nc1nc2c(-c3c(Cl)cc4c(N5C[C@H]6CC[C@@H](C5)C6(F)F)nc(OC[C@@]56CCCN5C[C@H](F)C6)nc4c3F)ccc(F)c2s1 [Compound 655, 4-(6-chloro-4-((1R,5S)-8,8-difluoro-3-azabicyclo[3.2.1]-octan-3-yl)-8-fluoro-2-(((2R,7aS)-2-fluorotetra-hydro-1H-pyrrolizin-7a(5H)-yl)methoxy)quinazolin-7-yl)-7-fluorobenzo[d]thiazol-2-amine] | > 500 | > 500
CNCCN1[C@@H]2CC[C@H]1CN(c1nc(OCC34CCCN3CCC4)nc3c(F)c(-c4ccc(F)c5sc(N)nc45)c(Cl)cc13)C2 [Compound 656, 4-(6-chloro-8-fluoro-4-((1R,5S)-8-(2-(methyl-amino)-ethyl)-3,8-diaza-bicyclo[3.2.1]octan-3-yl)-2-((tetrahydro-1H-pyrrol-izin-7a(5H)-yl)methoxy)-quinazolin-7-yl)-7-fluoro-benzo[d]thiazol-2-amine] | < 500 | > 500
Fc1c(-c2cccc3cn[nH]c23)ccc2c(N3CC4CCC(C3)N4)nc(OC[C@@]34CCCN3C[C@H](F)C4)nc12 [Compound 657, 4-(3,8-diazabicyclo[3.2.1]-octan-3-yl)-8-fluoro-2-(((2R,7aS)-2-fluorotetra-hydro-1H-pyrrolizin-7a(5H)-yl)methoxy)-7-(1H-indazol-7-yl)quinazoline] | > 500 | > 500
Oc1cc(CN2CCc3nc(OCC45CCCN4CCC5)nc(N4CC5CCC(C4)N5)c3CC2)c2ccccc2c1 [Compound 658, 4-((4-(3,8-diazabicyclo-[3.2.1]-octan-3-yl)-2-((tetrahydro-1H-pyrrolizin-7a(5H)-yl)methoxy)-5,6,8,9-tetrahydro-7H-pyrimido-[4,5-d]azepin-7-yl)methyl)-naphthalen-2-ol] | > 500 | > 500
Cc1ccc(C2(N)CC2)cc1-c1c(Cl)cc2c(N3CC4CCC(C3)N4)nc(OCC34CCCN3CCC4)nc2c1F [Compound 661, 1-(3-(4-(3,8-diazabicyclo-[3.2.1]octan-3-yl)-6-chloro-8-fluoro-2-((tetrahydro-1H-pyrrolizin-7a(5H)-yl)meth-oxy)quinazolin-7-yl)-4-methylphenyl)cyclopropan-1-amine] | > 500 | > 500
Nc1nc2c(-c3c(Cl)cc4c(N5CC6CCC(C5)N6)nc(OC[C@@]56CCCN5C[C@H](F)C6)nc4c3F)cccc2cc1F [Compound 665, 8-(4-(3,8-diazabicyclo-[3.2.1]octan-3-yl)-6-chloro-8-fluoro-2-(((2R,7aS)-2-fluorotetrahydro-1H-pyrrol-izin-7a(5H)-yl)methoxy)-quinazolin-7-yl)-3-fluoro-quinolin-2-amine] | > 500 | > 500
Nc1cccc(-c2ccccc2-c2c(Cl)cc3c(N4CCCCCC4)nc(OCC45CCCN4CCC5)nc3c2F)c1 [Compound 666, 2′-(4-(azepan-1-yl)-6-chloro-8-fluoro-2-((tetrahydro-1H-pyrrolizin-7a(5H)-yl)meth-oxy)quinazolin-7-yl)-[1,1′-biphenyl]-3-amine] | > 500 | > 500
Nc1nc2c(-c3c(Cl)cc4c(N5CCCCCCC5)nc(OC[C@@]56CCCN5C[C@H](F)C6)nc4c3F)ccc(F)c2s1 [Compound 667, 4-(4-(azocan-1-yl)-6-chloro-8-fluoro-2-(((2R,7aS)-2-fluorotetrahydro-1H-pyrrol-izin-7a(5H)-yl)methoxy)-quinazolin-7-yl)-7-fluoro-benzo[d]thiazol-2-amine] | < 500 | > 500
Oc1cc(-c2c(F)cc3c(N4CC5CCC(C4)N5)nc(OCC45CCCN4CCC5)nc3c2F)c2ccccc2c1 [Compound 669, 4-(4-(3,8-diazabicyclo-[3.2.1]octan-3-yl)-6,8-difluoro-2-((tetrahydro-1H-pyrrolizin-7a(5H)-yl)methoxy)quinazolin-7-yl)naphthalen-2-ol] | < 500 | > 500
Nc1cc(-c2c(Cl)cc3c(N4CCCCCC4)nc(OCC45CCCN4CCC5)nc3c2F)ccc1F [Compound 670, 5-(4-(azepan-1-yl)-6-chloro-8-fluoro-2-((tetrahydro-1H-pyrrolizin-7a(5H)-yl)meth-oxy)quinazolin-7-yl)-2-fluoroaniline] | > 500 | > 500
Fc1c(-c2ccc(F)c3[nH]nc(I)c23)c(Cl)cc2c(N3CC4CCC(C3)N4)nc(OC[C@@]34CCCN3C[C@H](F)C4)nc12 [Compound 671, 4-(3,8-diazabicyclo[3.2.1]-octan-3-yl)-6-chloro-8-fluoro-7-(7-fluoro-3-iodo-1H-indazol-4-yl)-2-(((2R,7aS)-2-fluorotetra-hydro-1H-pyrrolizin-7a(5H)-yl)methoxy)quinazoline] | > 500 | > 500
CN1CCC[C@H]1COc1nc(N2CCCCC(N)C2)c2cc(Cl)c(-c3cccc4sc(N)nc34)c(F)c2n1 (stereo partly drawn) [Compound 672, 4-(4-(3-aminoazepan-1-yl)-6-chloro-8-fluoro-2-(((S)-1-methylpyrrolidin-2-yl)meth-oxy)quinazolin-7-yl)ben-zo[d]thiazol-2-amine] | < 500 | > 500

More lines, now with the values ahead:

IC50 [1] [nM] | IC50 (wildtype Kras / hSOS1) [nM] | Compound
< 500 | > 500 | N#Cc1c(N)sc2c(F)ccc(-c3c(Cl)cc4c(N5CC6CCC(C5)N6)nc(OC[C@@]56CCCN5C[C@H](F)C6)nc4c3F)c12 [Compound 673, 4-(4-(3,8-diazabicyclo-[3.2.1]octan-3-yl)-6-chloro-8-fluoro-2-(((2R,7aS)-2-fluorotetrahydro-1H-pyrrol-izin-7a(5H)-yl)methoxy)-quinazolin-7-yl)-2-amino-7-fluorobenzo[b]thiophene-3-carbonitrile]
< 500 | > 500 | N#Cc1csc2cccc(-c3c(Cl)cc4c(N5CC6CCC(C5)N6)nc(OC[C@@]56CCCN5C[C@H](F)C6)nc4c3F)c12 [Compound 674, 4-(4-(3,8-diazabicyclo-[3.2.1]-octan-3-yl)-6-chloro-8-fluoro-2-(((2R,7aS)-2-fluorotetrahydro-1H-pyrrol-izin-7a(5H)-yl)methoxy)-quinazolin-7-yl)benzo[b]-thiophene-3-carbonitrile]
< 500 | > 500 | Nc1nc2c(-c3c(Cl)cc4c(N5CCCCCC5)nc(OCC5(CN6CCCC6)CC5)nc4c3F)ccc(F)c2s1 [Compound 677, 4-(4-(azepan-1-yl)-6-chloro-8-fluoro-2-((1-(pyrrolidin-1-ylmethyl)cyclopropyl)meth-oxy)quinazolin-7-yl)-7-fluorobenzo[d]thiazol-2-amine]
> 500 | > 500 | Cc1ccc2cnn(C#N)c2c1-c1c(Cl)cc2c(N3CC4CCC(C3)N4)nc(OC[C@@]34CCCN3C[C@H](F)C4)nc2c1F [Compound 678, 7-(4-(3,8-diazabicyclo-[3.2.1]octan-3-yl)-6-chloro-8-fluoro-2-(((2R,7aS)-2-fluorotetrahydro-1H-pyrrol-izin-7a(5H)-yl)methoxy)-quinazolin-7-yl)-6-methyl-1H-indazole-1-carbonitrile]
< 500 | > 500 | N#Cc1c(N)sc2c(F)ccc(-c3c(Cl)cc4c(N5C[C@H]6CC[C@@H](C5)N6C5CCOCC5)nc(OC[C@@]56CCCN5C[C@H](F)C6)nc4c3F)c12 [Compound 679, 2-amino-4-(6-chloro-8-fluoro-2-(((2R,7aS)-2-fluorotetrahydro-1H-pyrrol-izin-7a(5H)-yl)methoxy)-4-((1R,5S)-8-(tetrahydro-2H-pyran-4-yl)-3,8-diaza-bicyclo[3.2.1]octan-3-yl)-quinazolin-7-yl)-7-fluoro-benzo[b]thiophene-3-carbonitrile]
< 500 | > 500 | Nc1nc2c(-c3c(F)cc4c(N5CC6CCC(C5)N6)nc(OCC56CCCN5CCC6)nc4c3F)ccc(F)c2s1 [Compound 680, 4-(4-(3,8-diazabicyclo-[3.2.1]octan-3-yl)-6,8-difluoro-2-((tetrahydro-1H-pyrrolizin-7a(5H)-yl)methoxy)quinazolin-7-yl)-7-fluorobenzo[d]thiazol-2-amine]
< 500 | > 500 | CN(C)CC1CN(c2nc(OCC34CCCN3CCC4)nc3c(F)c(-c4ccc(F)c5sc(N)nc45)c(Cl)cc23)CCCO1 (centres unmarked) [Compound 681, 4-(6-chloro-4-(2-((dimethyl-amino)methyl)-1,4-oxaze-pan-4-yl)-8-fluoro-2-((tetra-hydro-1H-pyrrolizin-7a(5H)-yl)methoxy)quinazolin-7-yl)-7-fluorobenzo[d]thiazol-2-amine]
< 500 | > 500 | CC(C)CCN1[C@@H]2CC[C@H]1CN(c1nc(OCC34CCCN3CCC4)nc3c(F)c(-c4ccc(F)c5sc(N)nc45)c(Cl)cc13)C2 [Compound 682, 4-(6-chloro-8-fluoro-4-((1R,5S)-8-isopentyl-3,8-diazabicyclo[3.2.1]octan-3-yl)-2-((tetrahydro-1H-pyr-rolizin-7a(5H)-yl)methoxy)-quinazolin-7-yl)-7-fluoro-benzo[d]thiazol-2-amine]
> 500 | > 500 | Nc1c(-c2ccccc2)cccc1-c1c(Cl)cc2c(N3CC4CCC(C3)N4)nc(OCC34CCCN3CCC4)nc2c1F [Compound 683, 3-(4-(3,8-diazabicyclo-[3.2.1]-octan-3-yl)-6-chloro-8-fluoro-2-((tetrahydro-1H-pyrrolizin-7a(5H)-yl)meth-oxy)quinazolin-7-yl)-[1,1′-biphenyl]-2-amine]
